According to patent US20230399325A1, “SUCCINATE AND CRYSTAL FORM THEREOF AS THERAPEUTICS” (AUCENTRA THERAPEUTICS PTY LTD, priority 2020, published 2023):
Converted amounts (≈) assume the structure as drawn. “And” between values parts separate entries of the source, which are not always exact repeats. Equal entries are not always repeated. Where two headings read alike, the source gives them in different places.

What was measured:
[1] = system: COLO 205 colorectal tumor xenograft; assay: COLO 205 colorectal tumor xenograft; type: in vivo, mice; conditions: 15 mg/kg intraperitoneally
Protocol: A separate study of Compound A succinate was conducted in COLO 205 colorectal tumor xenograft. The tumor-bearing mice (n=8) were treated orally with vehicle (ultra-pure water), or Compound A succinate (50 or 100 mg/kg) once daily for 21 days. As a positive control chemotherapy 5-FU (15 mg/kg) was given intraperitoneally. […] 5-FU was also effective with a T/C=47.2% (Table 7).

[2] = Dynamic solubility in water and FaSSIF at 37° C.; type: physicochemical; conditions: for solubility at 1 h / solubility at 2 h / solubility at 4 h / solubility at 24 h: thermodynamic from solid, read-out: S: Solubility; for solubility compared to Compound A free base: both FaSSIF and water
[3] = Solid-state stability, 14 days, HPLC; type: physicochemical
Protocol: Compound A salts and Compound A were tested for their solid-state stability under the conditions of 25° C./60% RH and 40° C./75% RH.

[4] = Hygroscopicity by dynamic moisture adsorption (DVS); type: physicochemical; conditions: for Hygroscopicity: 25° C./80% RH
Protocol: Dynamic moisture adsorption (DVS) was used to evaluate the hygroscopicity of compound A and salt forms under the condition of 25° C. and 80% RH.

[5] = Pharmacokinetic study of Compound A in male cynomolgus monkeys; type: in vivo
Protocol: Two groups of male cynomolgus monkeys (n=3 per group) were given Compound A by a single intravenous injection (i.v.) of 5 mg/kg, or intragastric administration (i.g.) of 50 mg/kg. Blood samples were collected at different time points. The exposure of Compound A in plasma samples were measured by LC-MS/MS method, and PK parameters (Table 8) were calculated using Phoenix WinNonlin 8.0 software.

[6] = system: A2780 ovarian cancer cells; assay: Subcutaneous A2780 ovarian cancer xenograft; type: in vivo, female BALB/c nude mice; conditions: 75 mg/kg orally once a day
Protocol: Compound A succinate was also assessed for in vivo anti-tumor activity in subcutaneous xenografts. Briefly, female BALB/c nude mice were inoculated with A2780 ovarian cancer cells; when the mean tumour volume reached 150-200 mm^3, animals were randomized to groups. The animals (n=8 per group) were treated orally with vehicle (ultra-pure water), Compound A succinate (62.5, 125 or 250 mg/kg), or Palbociclib (75 mg/kg) once a day for 14 consecutive days. Mice were observed daily for signs of toxicity and weight loss, and tumour volume measured every other day. […] Palbociclib was efficacious at 75 mg/kg, resulting in T/C of 42.8% (Table 6).

[7] = cynomolgus monkey, plasma, iv, i.v. 5 mg/kg
[8] = cynomolgus monkey, plasma, po, i.g. 50 mg/kg

In the case of `O=c1[nH]cc(F)c(=O)[nH]1` [Compound 5-FU, 5-FU, reference compound], the “Inhibition of tumor growth (T/C)” value [1] is reported as 47.2% and the “Tumor volume (±S)” value [1] is reported as 799.62 ± 61.95 mm^3.
`CCN1CCN(Cc2ccc(Nc3ncc(F)c(-c4sc(NC5CCCC5)nc4C)n3)nc2)CC1` [Compound A, N-Cyclopentyl-5-(2-((5-((4-ethylpiperazin-1-yl)methyl)pyridin-2-yl)amino)-5-fluoropyrimidin-4-yl)-4-methylthiazol-2-amine] gave a solubility at 1 h ([2]; FaSSIF, 1 hour) of 0.27 mg/mL (≈ 544 µM), a solubility at 2 h ([2]; FaSSIF, 2 hours) of 0.28 mg/mL (≈ 564 µM) and a solubility at 4 h ([2]; FaSSIF, 4 hours) of 0.24 mg/mL (≈ 483 µM). For the same molecule, the solubility at 24 h ([2]; FaSSIF, 24 hours) was 0.2 mg/mL (≈ 403 µM), the solubility at 1 h ([2]; water, H2O, 1 hour) was 0.22 mg/mL (≈ 443 µM) and the solubility at 2 h ([2]; water, H2O, 2 hours) was 0.24 mg/mL (≈ 483 µM). The solubility at 4 h ([2]; water, H2O, 4 hours) was 0.24 mg/mL (≈ 483 µM), the solubility at 24 h ([2]; water, H2O, 24 hours) was 0.22 mg/mL (≈ 443 µM) and the Purity ([3]; 25° C./60% RH) was 97.6 area %. The Relative purity ([3]; 25° C./60% RH) was 100.0 % of initial, the Purity ([3]; 40° C./75% RH) was 97.6 area % and the Relative purity ([3]; 40° C./75% RH) was 100.1 % of initial. The “Moisture absorbed at 25° C./80% RH” value [4] was 1.4%, the Hygroscopicity [4] was “Slightly hygroscopic” and the AUC(0-inf) [5, 7] was 4.56 µg·h/mL. It also gave an AUC(0-t) [5, 7] of 4.19 µg·h/mL, a Cmax [5, 7] of 0.447 µg/mL and a Vd [5, 7] of 9.8 L/kg. For the same molecule, the clearance [5, 7] was 1.16 L/h/kg, the half-life [5, 7] was 6.5 h and the Cmax [5, 8] was 0.643 µg/mL. The half-life [5, 8] was 8.3 h and the F ([5]; i.g. 50 mg/kg) was 21.8%.
For `CCN1CCN(Cc2ccc(Nc3ncc(F)c(-c4sc(NC5CCCC5)nc4C)n3)nc2)CC1.Cl` [Compound A hydrochloride], the “S: Solubility” value ([2]; FaSSIF, 1 hour) was 2.0 mg/mL, the “S: Solubility” value ([2]; FaSSIF, 2 hours) was 2.0 mg/mL and the “S: Solubility” value ([2]; FaSSIF, 4 hours) was 2.2 mg/mL. For the same molecule, the “S: Solubility” value ([2]; FaSSIF, 24 hours) was 2.1 mg/mL, the “S: Solubility” value ([2]; H2O, 1 hour) was 6.8 mg/mL and the “S: Solubility” value ([2]; H2O, 2 hours) was 7.1 mg/mL. For the same molecule, the “S: Solubility” value ([2]; H2O, 4 hours) was 7.2 mg/mL, the “S: Solubility” value ([2]; H2O, 24 hours) was 6.8 mg/mL and the “solubility compared to Compound A free base” value [2] was “significantly increased”. For the same molecule, the Purity ([3]; 25° C./60% RH) was 97.6 area %, the Relative purity ([3]; 25° C./60% RH) was 99.9 % of initial and the Purity ([3]; 40° C./75% RH) was 97.7 area %. The Relative purity ([3]; 40° C./75% RH) was 100.0 % of initial, the “Moisture absorbed at 25° C./80% RH” value [4] was 3.4% and the Hygroscopicity [4] was “Hygroscopic”.
In the case of `CCN1CCN(Cc2ccc(Nc3ncc(F)c(-c4sc(NC5CCCC5)nc4C)n3)nc2)CC1.CS(=O)(=O)O` [Compound A mesylate], the “S: Solubility” value ([2]; FaSSIF, 1 hour) is reported as 8.8 mg/mL, the “S: Solubility” value ([2]; FaSSIF, 2 hours) is reported as 8.3 mg/mL and the “S: Solubility” value ([2]; FaSSIF, 4 hours) is reported as 8.4 mg/mL. For the same molecule, the “S: Solubility” value ([2]; FaSSIF, 24 hours) was 4.4 mg/mL, the “S: Solubility” value ([2]; H2O, 1 hour) was 8.2 mg/mL and the “S: Solubility” value ([2]; H2O, 2 hours) was 8.3 mg/mL. The “S: Solubility” value ([2]; H2O, 4 hours) was 8.6 mg/mL, the “S: Solubility” value ([2]; H2O, 24 hours) was 8.5 mg/mL and the “solubility compared to Compound A free base” value [2] was “significantly increased”. For the same molecule, the Purity ([3]; 25° C./60% RH) was 97.6 area %, the Relative purity ([3]; 25° C./60% RH) was 100.1 % of initial and the Purity ([3]; 40° C./75% RH) was 97.5 area %. For the same molecule, the Relative purity ([3]; 40° C./75% RH) was 100.0 % of initial, the “Moisture absorbed at 25° C./80% RH” value [4] was 14.4% and the Hygroscopicity [4] was “Extremely hygroscopic”.
For `CCN1CCN(Cc2ccc(Nc3ncc(F)c(-c4sc(NC5CCCC5)nc4C)n3)nc2)CC1.O=P(O)(O)O` [Compound A phosphate], the “S: Solubility” value ([2]; FaSSIF, 1 hour) was 1.7 mg/mL, the “S: Solubility” value ([2]; FaSSIF, 2 hours) was 0.67 mg/mL and the “S: Solubility” value ([2]; FaSSIF, 4 hours) was 0.47 mg/mL. The “S: Solubility” value ([2]; FaSSIF, 24 hours) was 0.33 mg/mL, the “S: Solubility” value ([2]; H2O, 1 hour) was 0.45 mg/mL and the “S: Solubility” value ([2]; H2O, 2 hours) was 0.41 mg/mL. For the same molecule, the “S: Solubility” value ([2]; H2O, 4 hours) was 0.44 mg/mL, the “S: Solubility” value ([2]; H2O, 24 hours) was 0.36 mg/mL and the Purity ([3]; 25° C./60% RH) was 98.3 area %. The Relative purity ([3]; 25° C./60% RH) was 100.0 % of initial, the Purity ([3]; 40° C./75% RH) was 98.2 area % and the Relative purity ([3]; 40° C./75% RH) was 99.9 % of initial. The “Moisture absorbed at 25° C./80% RH” value [4] was 3.7% and the Hygroscopicity [4] was “Hygroscopic”.
With `CC(=O)c1c(C)c2cnc(Nc3ccc(N4CCNCC4)cn3)nc2n(C2CCCC2)c1=O` [Palbociclib, reference compound] the “Tumor volume (±S)” value ([6]; 14 days) was 1850.1 ± 121.1 mm^3 and the “Mean tumor growth inhibition (T/C)” value ([6]; day 14) was 42.8% and 42.79%.
